# Measured values: patent US20230219986A1, “NOVEL AMINOPYRIMIDINE EGFR INHIBITOR” (QILU PHARMACEUTICAL CO., LTD., priority 2020, published 2023)
# Marks after values point to notes of the source that are not given here.
# Key:
# [1] = biological target: Ba/F3 L858R/T790M/C797S EGFR triple mutant cell line (Homo sapiens, UniProt P00533, T790M/C797S/L858R, cells depend on it); test: Cell proliferation inhibition experiment (CellTiter-Glo), Ba/F3 L858R/T790M/C797S; assay type: cell-based; conditions: 72 hours, Cell Titer-Glo, read-out: Ba/F3 (L858R/T790M/C797S) IC50
# Sequence of Ba/F3 L858R/T790M/C797S EGFR triple mutant cell line (P00533 whole entry T790M/C797S/L858R): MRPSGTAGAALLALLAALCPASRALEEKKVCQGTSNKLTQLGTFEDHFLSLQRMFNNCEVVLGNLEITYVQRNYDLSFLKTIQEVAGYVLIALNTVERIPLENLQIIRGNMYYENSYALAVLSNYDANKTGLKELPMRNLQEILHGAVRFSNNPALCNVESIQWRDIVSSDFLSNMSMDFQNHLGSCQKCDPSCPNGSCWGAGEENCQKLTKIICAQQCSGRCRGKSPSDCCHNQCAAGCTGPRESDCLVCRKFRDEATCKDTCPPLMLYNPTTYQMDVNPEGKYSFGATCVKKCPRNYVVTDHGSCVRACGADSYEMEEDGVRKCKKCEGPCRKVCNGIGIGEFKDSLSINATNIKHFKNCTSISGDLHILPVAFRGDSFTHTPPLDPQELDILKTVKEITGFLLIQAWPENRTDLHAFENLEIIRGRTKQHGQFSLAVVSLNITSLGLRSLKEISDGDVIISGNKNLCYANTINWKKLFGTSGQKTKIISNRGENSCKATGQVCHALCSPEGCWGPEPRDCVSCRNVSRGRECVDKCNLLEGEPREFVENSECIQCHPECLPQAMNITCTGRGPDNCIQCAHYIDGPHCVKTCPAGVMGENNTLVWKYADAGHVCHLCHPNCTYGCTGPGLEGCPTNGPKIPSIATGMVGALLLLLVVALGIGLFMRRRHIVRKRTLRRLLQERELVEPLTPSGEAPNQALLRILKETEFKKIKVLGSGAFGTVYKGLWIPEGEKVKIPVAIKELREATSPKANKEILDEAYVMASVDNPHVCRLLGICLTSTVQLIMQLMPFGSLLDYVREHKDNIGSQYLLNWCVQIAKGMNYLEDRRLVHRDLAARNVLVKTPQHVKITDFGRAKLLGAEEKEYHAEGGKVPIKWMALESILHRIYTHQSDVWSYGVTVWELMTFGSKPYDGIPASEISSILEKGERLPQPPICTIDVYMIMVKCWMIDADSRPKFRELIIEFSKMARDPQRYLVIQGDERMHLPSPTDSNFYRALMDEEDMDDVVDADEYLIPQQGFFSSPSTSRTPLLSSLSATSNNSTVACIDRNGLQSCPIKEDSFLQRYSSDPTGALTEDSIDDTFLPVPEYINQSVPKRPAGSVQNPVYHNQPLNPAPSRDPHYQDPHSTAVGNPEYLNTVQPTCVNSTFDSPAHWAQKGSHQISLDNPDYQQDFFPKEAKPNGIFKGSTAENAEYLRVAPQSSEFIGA
# [2] = system: EGFR wild-type cell line A431; test: Cell proliferation inhibition experiment (CellTiter-Glo), A431; assay type: cell-based; conditions: Homo sapiens, A-431, 72 h, A431 cells, Cell Titer-Glo, read-out: A431 EGFR WT IC50
# In short: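 A431 cells, 800 per well, were cultured 24 h and then exposed to serially diluted compound (0.1% DMSO final) for 72 h at 37° C., 5% CO2.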
# wild-type EGFR = biological target: T1, wild-type EGFR (Homo sapiens, UniProt P00533); test: Enzymology experiment in vitro (HTRF/FRET kinase activity), wild-type EGFR; assay type: biochemical; conditions: HTRF KinEASE-TK, read-out: EGFR (WT) IC50
# T1 construct: purchased Signalchem
# T1 sequence (P00533 25-1210): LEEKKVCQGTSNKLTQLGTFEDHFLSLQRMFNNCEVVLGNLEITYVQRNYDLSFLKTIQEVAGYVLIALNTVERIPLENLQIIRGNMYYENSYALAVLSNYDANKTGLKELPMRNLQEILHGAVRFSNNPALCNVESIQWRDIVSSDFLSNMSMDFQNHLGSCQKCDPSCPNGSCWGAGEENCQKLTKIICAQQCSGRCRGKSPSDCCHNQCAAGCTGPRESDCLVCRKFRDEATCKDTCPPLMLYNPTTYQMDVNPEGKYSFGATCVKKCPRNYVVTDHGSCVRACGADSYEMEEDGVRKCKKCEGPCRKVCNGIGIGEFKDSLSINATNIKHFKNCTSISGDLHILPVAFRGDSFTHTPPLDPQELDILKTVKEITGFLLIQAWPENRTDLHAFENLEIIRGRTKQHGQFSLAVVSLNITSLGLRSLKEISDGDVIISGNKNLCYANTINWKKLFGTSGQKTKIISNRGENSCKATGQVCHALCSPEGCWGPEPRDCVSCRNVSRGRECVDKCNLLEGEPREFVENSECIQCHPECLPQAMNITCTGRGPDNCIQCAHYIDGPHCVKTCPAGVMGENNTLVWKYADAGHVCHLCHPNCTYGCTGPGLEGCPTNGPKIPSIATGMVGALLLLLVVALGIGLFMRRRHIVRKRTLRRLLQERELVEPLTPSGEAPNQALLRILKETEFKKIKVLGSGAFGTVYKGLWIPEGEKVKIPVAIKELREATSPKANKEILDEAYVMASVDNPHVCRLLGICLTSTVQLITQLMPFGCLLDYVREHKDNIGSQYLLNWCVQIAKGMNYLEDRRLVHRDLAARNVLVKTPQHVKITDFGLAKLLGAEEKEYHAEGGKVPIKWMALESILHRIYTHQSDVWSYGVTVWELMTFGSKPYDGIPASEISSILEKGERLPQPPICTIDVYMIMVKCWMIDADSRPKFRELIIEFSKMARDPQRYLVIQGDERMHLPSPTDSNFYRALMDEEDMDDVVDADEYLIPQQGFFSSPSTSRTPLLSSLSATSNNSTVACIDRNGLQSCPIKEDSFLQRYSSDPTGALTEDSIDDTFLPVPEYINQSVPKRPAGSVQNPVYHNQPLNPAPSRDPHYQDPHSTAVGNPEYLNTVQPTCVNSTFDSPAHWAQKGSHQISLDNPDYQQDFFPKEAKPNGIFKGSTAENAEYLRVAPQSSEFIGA
# In short: (§1)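 HTRF KinEASE-TK format: EGFR enzyme preincubated with compound 10 min at room temperature, then peptide substrate plus ATP added for 40 min. Detection with EDTA, XL665-streptavidin and Eu³⁺-labeled antibody for 1 h.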
# [3] = system: PC9 (De119/T790M/C797S) nude mice xenograft model; test: In vivo efficacy research experiment B (compound 243); set-up: species or system BALB/c-nu mice; conditions: for Tumor volume (mean ± standard error): PC9 (De119/T790M/C797S) xenograft
# Method: To evaluate the antitumor activity and toxic side effects of compound 243 orally administered for 21 days in PC9 (De119/T790M/C797S) nude mice xenograft model.
# BALB/c-nu mice, female, SPF grade, purchased from Beijing Vital River Laboratory Animal Technology Co., Ltd.
# PC9 (De119/T790M/C797S) cells, constructed by Qilu Pharmaceutical Co., Ltd.
# PC9 (De119/T790M/C797S) cells were cultured in RPMI 1640 medium containing 10% FBS at 37° C. in a 5% carbon dioxide incubator; cells in exponential growth phase were collected and inoculated.
# Under sterile conditions, PC9 (De119/T790M/C797S) cell suspension cultured in vitro was taken, the cell concentration was adjusted to 3×10^7 cells/mL after centrifugation, and subcutaneously inoculated under the right armpit of mice (0.1 mL/ mouse). The day of inoculation was set as day 0.
# a, When the average tumor volume was about 140 mm^3, 21 mice with moderate tumor volume were selected and randomly divided into […] according to the tumor volume: G1: solvent control group, G2: compound 243 (15 mg/kg) and G3: compound 243 (40 mg/kg), 7 mice/group.
# b, After animals were grouped, administration was started, and the administration volume was 10 mL/kg, administered orally (po); administered by weight once a day for 21 consecutive days; tumor diameter was measured twice a week.
# c, Tumor volume (TV): the tumor volume was measured twice a week to observe the volume change and growth rate of the tumor. Tumor volume V=½×a×b^2, where a and b represent the long and short diameters of the tumor, respectively. The growth inhibition effect of the compounds on tumor tissue was evaluated by tumor growth inhibition rate TGI (%). […] The data of the administration group and the negative control group were taken on the same day.
# d, During the experiment, the living conditions of the mice, including appearance signs, general behavior, mental state, food intake, respiratory state, feces and urine characteristics, local injection site and other toxicity manifestations, were closely observed.
# e, After the experiment reached the end point, the mice were euthanized, and the animal carcasses were frozen in a freezer and handed over to a qualified medical waste disposal unit for disposal.
# [4] = biological target: Ba/F3 De119/T790M/C797S EGFR triple mutant cell line (Homo sapiens, UniProt P00533, T790M/C797S, cells depend on it, form not given); test: Cell proliferation inhibition experiment (CellTiter-Glo), Ba/F3 De119/T790M/C797S; assay type: cell-based; conditions: Ba/F3 Del19/T790M/C797S EGFR triple mutant cells, 72 hours, Cell Titer-Glo; read-out: Ba/F3 (Del19/T790M/C797S) IC50
# Sequence of Ba/F3 De119/T790M/C797S EGFR triple mutant cell line (P00533 with tags, fused parts or gaps DEL746-750/T790M/C797S, form open): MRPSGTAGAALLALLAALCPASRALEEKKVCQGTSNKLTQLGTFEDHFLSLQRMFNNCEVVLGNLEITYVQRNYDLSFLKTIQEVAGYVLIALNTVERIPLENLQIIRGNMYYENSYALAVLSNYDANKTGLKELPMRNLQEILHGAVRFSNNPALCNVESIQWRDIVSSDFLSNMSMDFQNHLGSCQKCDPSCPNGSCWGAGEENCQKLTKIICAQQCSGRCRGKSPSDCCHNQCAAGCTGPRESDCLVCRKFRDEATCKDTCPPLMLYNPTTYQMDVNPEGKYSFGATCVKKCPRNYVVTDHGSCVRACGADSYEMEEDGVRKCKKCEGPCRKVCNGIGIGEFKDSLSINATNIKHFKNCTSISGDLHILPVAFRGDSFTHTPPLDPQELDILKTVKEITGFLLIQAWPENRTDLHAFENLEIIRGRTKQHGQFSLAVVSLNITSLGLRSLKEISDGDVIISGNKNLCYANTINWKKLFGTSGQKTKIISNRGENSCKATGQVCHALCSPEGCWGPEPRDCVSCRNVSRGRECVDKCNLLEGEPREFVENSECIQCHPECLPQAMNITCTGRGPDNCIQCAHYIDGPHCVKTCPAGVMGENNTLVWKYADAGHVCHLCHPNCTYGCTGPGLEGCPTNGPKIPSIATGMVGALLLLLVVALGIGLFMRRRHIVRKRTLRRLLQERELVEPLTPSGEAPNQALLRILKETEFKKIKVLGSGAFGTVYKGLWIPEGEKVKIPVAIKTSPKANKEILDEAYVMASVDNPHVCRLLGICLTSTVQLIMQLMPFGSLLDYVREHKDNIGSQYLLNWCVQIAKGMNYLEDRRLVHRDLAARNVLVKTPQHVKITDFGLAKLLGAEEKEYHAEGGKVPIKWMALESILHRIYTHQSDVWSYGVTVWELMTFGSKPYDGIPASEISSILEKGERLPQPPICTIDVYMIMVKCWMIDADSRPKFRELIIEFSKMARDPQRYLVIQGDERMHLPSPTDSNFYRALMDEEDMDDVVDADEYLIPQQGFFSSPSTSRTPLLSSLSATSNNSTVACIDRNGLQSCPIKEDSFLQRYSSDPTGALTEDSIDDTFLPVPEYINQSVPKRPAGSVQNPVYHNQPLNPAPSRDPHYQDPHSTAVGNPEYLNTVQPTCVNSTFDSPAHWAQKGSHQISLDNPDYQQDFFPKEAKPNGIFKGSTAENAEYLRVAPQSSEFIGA
# [5] = biological target: T2, L858R/T790M/C797S triple mutant EGFR (Homo sapiens, UniProt P00533, C797S/L858R/T790M); test: Enzymology experiment in vitro (HTRF/FRET kinase activity), L858R/T790M/C797S triple mutant EGFR; assay type: biochemical; conditions: HTRF KinEASE-TK, read-out: EGFR (L858R/T790M/C797S) IC50
# T2 construct: purchased Signalchem
# T2 sequence (P00533 25-1210 T790M/C797S/L858R): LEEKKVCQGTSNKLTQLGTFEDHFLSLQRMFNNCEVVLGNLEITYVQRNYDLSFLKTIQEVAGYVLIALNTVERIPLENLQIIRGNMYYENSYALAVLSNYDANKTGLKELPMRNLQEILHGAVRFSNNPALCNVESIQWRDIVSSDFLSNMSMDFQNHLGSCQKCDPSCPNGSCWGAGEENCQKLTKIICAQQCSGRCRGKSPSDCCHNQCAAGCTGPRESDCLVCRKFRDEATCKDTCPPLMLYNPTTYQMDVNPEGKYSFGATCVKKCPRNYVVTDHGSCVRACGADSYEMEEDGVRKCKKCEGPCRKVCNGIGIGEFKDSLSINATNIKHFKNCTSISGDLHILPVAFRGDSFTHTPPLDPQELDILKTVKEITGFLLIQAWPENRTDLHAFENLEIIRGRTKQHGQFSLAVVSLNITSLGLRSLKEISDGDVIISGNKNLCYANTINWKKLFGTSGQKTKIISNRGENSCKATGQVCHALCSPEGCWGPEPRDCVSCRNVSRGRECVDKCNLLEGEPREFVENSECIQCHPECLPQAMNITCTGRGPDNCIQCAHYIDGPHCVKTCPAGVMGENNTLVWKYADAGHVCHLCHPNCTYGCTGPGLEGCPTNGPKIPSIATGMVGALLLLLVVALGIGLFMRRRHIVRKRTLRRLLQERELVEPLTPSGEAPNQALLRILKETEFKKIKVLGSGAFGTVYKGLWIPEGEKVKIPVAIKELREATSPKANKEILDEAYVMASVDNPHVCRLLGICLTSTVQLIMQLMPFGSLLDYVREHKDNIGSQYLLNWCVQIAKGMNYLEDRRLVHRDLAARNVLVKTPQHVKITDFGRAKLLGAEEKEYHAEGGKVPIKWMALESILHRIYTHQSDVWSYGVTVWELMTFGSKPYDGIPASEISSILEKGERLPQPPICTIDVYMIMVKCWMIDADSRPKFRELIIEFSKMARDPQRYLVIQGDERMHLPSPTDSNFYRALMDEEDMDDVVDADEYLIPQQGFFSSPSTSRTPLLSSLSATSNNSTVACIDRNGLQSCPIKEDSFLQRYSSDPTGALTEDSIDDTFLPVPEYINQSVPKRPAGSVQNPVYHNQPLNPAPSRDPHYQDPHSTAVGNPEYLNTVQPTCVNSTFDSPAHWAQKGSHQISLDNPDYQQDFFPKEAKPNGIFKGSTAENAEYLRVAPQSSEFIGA
# In short: as §1
# [6] = 15 mg/kg po once a day for 21 days
# [7] = 40 mg/kg po once a day for 21 days
smiles,measurement,setting,value
"COc1cc(N2CCC3(CC2)CCN(C(C)(C)CF)CC3)c(-c2cnn(C)c2)cc1Nc1ncc(Br)c(Nc2ccc3nccnc3c2P(C)(C)=O)n1 [compound 243, (6-((5-Bromo-2-((4-(9-(1-fluoro-2-methylpropan-2-yl)-3,9-diazaspiro[5.5]undecan-3-yl)-2-methoxy-5-(1-methyl-1H-pyrazol-4-yl)phenyl)amino)pyrimidin-4-yl)amino)quinoxalin-5-yl)dimethylphosphine oxide]",GI50,[1],3.95 nM
same,IC50,[2],141 nM
same,IC50,wild-type EGFR,4.91 nM
same,TGI,[3]; [6],81.4%
same,Weight change,[3]; [6],−0.4%
same,Tumor volume (mean ± standard error),[3]; [6],318.6 ± 38.63** mm^3
same,TGI,[3]; [7],110.1%
same,Weight change,[3]; [7],−6.1%
same,Tumor volume (mean ± standard error),[3]; [7],38.6 ± 5.19** mm^3
same,tolerability of mice,"[3]; 15, 40 mg/kg",well tolerated
same,tumor growth inhibition (in words),"[3]; 15, 40 mg/kg po once a day for 21 days",significantly inhibit tumor growth
same,GI50,[4],1.73 nM
same,IC50,[5],0.54 nM
